Assay results published in patent US8932594B2, “Adjuvants and methods of use” (The Scripps Research Institute, priority 2006, dated 2015).

What was measured:
splenic DCs = experiment: Induction of DC maturation in vivo, FACS of splenic cells; parameters: species or system mice; conditions: for DC phenotype (CD40, CD80, CD86, MHC class II expression): CD11c+/CD8+ and CD11c+/CD8− cells
Procedure: Mice were injected with α-GalCer, PBS-31 and PBS-32 and DC differentiation was examined in splenic DCs by analyzing cell surface marker expression.
Three mice in each group were injected intravenously with 1 μg lipid or vehicle alone. At 24 hours post-injection, CD1d expression was examined on splenic B cells (B220+), macrophages (CD11b+) and DCs (CD11c+) by FACS analysis using a FACScalibur machine and FlowJo analysis software.
The maturation of DCs was analyzed by measuring expression of CD40, CD80, CD86, and MHC class II on CD11c^+/CD8^+ and CD11c^+/CD8^− cells (FIG. 8). […] PBS-32 and αGalCer reached maximal induction between 0.1 and 1 μg (data not shown).
Induction of DC maturation was unaffected in MyD88^−/− and MyD88^−/−TRIF^−/− knock out animals in which the Toll-like receptor pathway is partially, or totally impaired, respectively (data not shown). The CD1d-dependence was confirmed by injecting CD1d^−/− mice with the lipids.

[1] = system: ovalbumin-specific CD8+ T cell and IgG responses; experiment: Adjuvant capability with ovalbumin antigen; format: in vivo, mice; conditions: for H-2Kb/ova257-264 tetramer positive cells in the CD8+ T cell pool: ovalbumin plus 1 μg lipid intravenous, peripheral blood, day 7 post-injection; for IgG anti-ovalbumin response: ovalbumin plus lipid, ELISA, compared to control group
Procedure: The potential adjuvanticity of PBS-31 and PBS-32 combined with a nominal protein antigen, ovalbumin, was conducted following a protocol similar to that of Fujii et al., J. Exp. Med. 198: 267-279 (2003) and Hermans et al., J. Immunol. 171: 5140-5147 (2003), which are incorporated herein by reference in their entireties. Ovalbumin was injected intravenously either alone or in combination with 1 μg of PBS-31, PBS-32 or PBS-57. […] In the absence of working tetramers to follow MHC class II responses, only CD8+ responses and B cell responses were evaluated.
CD8+ T cell responses were evaluated by enumerating the H-2K^b/ova257-264 tetramer positive cells in peripheral blood at 7 days post-injection and are expressed as the percentage H-2K^b/ova257-264 positive cells in the CD8+ T cell pool. At day 7 post-injection, antigen-specific H-2K^b/ova257-264 tetramer positive cells were increased to about 3% in the PBS-32 injected group whereas they expanded to almost 6% in the PBS-57 treated group (FIG. 9A). […] These strong IgG responses may indirectly reflect a significant boost of the ovalbumin-specific CD4+T helper compartment as well.
When CD1d^−/− mice were injected following the same protocol, no increase in either anti-ovalbumin IgG or in the anti-ovalbumin CD8+ T cells were noted (data not shown).

human NKT cell line = experiment: Activation of human NKT cell line, IL-4 and IFN-γ ELISA; format: cell-based; conditions: 24 hours incubation with PBLs or matured DCs
Procedure: The agonistic activity of PBS-31 and PBS-32 was examined for human NKT cells. A human NKT cell line was stimulated with irradiated peripheral blood lymphocytes (PBLs) or in vitro matured DCs in the presence of PBS-31, PBS-32 and control lipid, iGB3. (Mattner et al., Nature 434: 525-529 (2005) incorporated herein by reference in its entirety.) After 24 hours incubation, supernatants were harvested and assayed for the presence of IL-4 and IFN-γ by ELISA.

NKT cells = experiment: Cytokine production by stimulated NKT cells (splenocytes), ELISA; format: cell-based; conditions: 24 hours incubation with splenocytes
Procedure: NKT cells were stimulated with PBS-32 or control compounds presented by plate-bound CD1d, splenocytes or purified mature DCs. Production of IFN-γ, IL-4, IL-10 and GM-CSF was measured by ELISA. […] The control lipids (glucosyl and galactosyl) were negative in the same assays. Cytokine induction was CD1d-dependent because induction was blocked by anti-CD1d antibodies and no cytokine induction was observed when DCs from CD1d^−/− mice were used (data not shown).

[2] = system: CD1d-restricted Vα14 NKT hybridoma cell, DN32.D3; experiment: Stimulation of NKT hybridoma DN32.D3 by lipid-pulsed APCs, IL-2 release; format: cell-based, mice; conditions: for presentation by DCs isolated from CD1-TD mice: DCs with disrupted cytoplasmic tail of CD1d, data not shown; for presentation by splenocytes to DN32.D3 (IL-2 release): irradiated splenocytes, 24 hours
Procedure: Compounds PBS-31, PBS-32, and control lipids were evaluated for their ability to stimulate a canonical CD1d-restricted Vα14 NKT hybridoma cell, DN32.D3 in an assay described by Lantz, et al., J. Exp. Med. 180: 1097-1106 (1994). Irradiated splenocytes were pulsed with decreasing concentrations of the lipids and control compounds, and incubated with DN32.D3 cells for 24 hours. Supernatants were harvested and IL-2 release was measured using a [^3H]-thymidine incorporation assay with an IL-2 dependent cell line as described by Cantu, et al., J. Immunol. 170:4673-4682 (2003).
Similar results were obtained when mature DCs were used as the APCs (data not shown). […] Therefore, presentation of PBS-31 and PBS-32 and concomitant stimulation of NKT cells is dependent on lysosomal targeting of CD1d.

DN32.D3 cells = experiment: DC-free assay: plate-coated murine CD1d, DN32.D3 cells, IL-2 production; format: cell-based; conditions: for requirement of processing by DCs for stimulation of NKT cells: plate-coated murine CD1d, with saposin B, 24 hours, data not shown
Procedure: To determine whether presentation of PBS-31 and PBS-32 to NKT cells was dependent on processing by DCs, a DC-free assay was used in which murine CD1d was coated on 96 well plates. PBS-31, PBS-32 and control compounds were added at various concentrations in the presence and absence of saposin B. DN32.D3 cells were added and supernatants were harvested after 24 hours and production of IL-2 was measured.

C57BI/6 mice = experiment: Serum cytokines after intravenous injection, ELISA; format: in vivo; conditions: 1 μg intravenous
Procedure: In vivo, following intravenous injection of 1 μg of positive control compound, αGalCer, or PBS-32, IFN-γ production in the serum of C57BI/6 mice was measured by ELISA and was very similar for both compounds (2500 pg/ml and 1500 pg/ml at 24 hours, respectively). IL-4 was undetectable following PBS-32 injection. […] At eight hours post-injection, PBS-32 induced 600 pg/ml IFN-γ.

[3] = system: murine Vα14 NKT cell line; experiment: Lipid-loaded CD1d tetramer staining of NKT cell line, FACS; format: binding; conditions: lipid-loaded CD1d tetramers; data not shown
Procedure: PBS-32-loaded CD1d tetramers, as well as control αGalCer tetramers, were prepared as described in Benlagha et al., J. Exp. Med. 191: 1895-1903 (2000) incorporated herein by reference in its entirety. The resulting tetramers were used to stain a murine Vα14 NKT cell line. After washing, the cells were analyzed on a FACSCalibur (BD Biosciences) using FlowJo software.

[4] = system: lymphocytic choriomeningitis virus (LCMV); format: in vivo, C57BI/6 mice; conditions: 1 μg intravenous before 10^6 PFU LCMVArm, day 8 post-infection, intracellular IFN-γ
CD1d = target: T1, CD1d (Mus musculus, UniProt P11609); experiment: Loading of CD1d molecules, native isoelectric focusing (IEF) gel assay; format: binding; conditions: 2 μM CD1d, 20 μM lipid, 1 hour at 37° C., no saposin B
T1 sequence (P11609 19-297 limits assumed): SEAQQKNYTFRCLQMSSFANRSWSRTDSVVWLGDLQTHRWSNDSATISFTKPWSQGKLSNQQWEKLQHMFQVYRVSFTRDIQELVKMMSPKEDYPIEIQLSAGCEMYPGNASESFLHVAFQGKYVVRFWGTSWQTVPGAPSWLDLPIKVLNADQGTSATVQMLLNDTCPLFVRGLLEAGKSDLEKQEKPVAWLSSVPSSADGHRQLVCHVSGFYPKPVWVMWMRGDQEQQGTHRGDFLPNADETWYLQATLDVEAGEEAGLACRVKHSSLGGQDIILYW
T1 sequence (P01887 21-119 partner): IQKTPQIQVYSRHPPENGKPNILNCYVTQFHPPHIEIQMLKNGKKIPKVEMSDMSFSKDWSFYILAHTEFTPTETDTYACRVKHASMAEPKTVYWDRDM
Procedure: Whether PBS-31 and PBS-32 could be efficiently loaded onto CD1d molecules was tested using a native isoelectric focusing (IEF) gel assay in the presence and absence of saposin B. For comparison, PBS-41 and PBS-46 (sulfo-β-galactosylceramides), PBS-36 and PBS-58 (sulfo-α-glucosylceramides) and PBS-35 and PBS-40 (β-glucosylceramides) were also evaluated in this assay.
Each 5 μl reaction contained 2 μM CD1d, 20 μM lipid and 10 μM saposin B. Reactions were incubated for 1 hour at 37° C. prior to gel loading.
Loaded species are indicated by a star in FIG. 3. The lanes of FIG. 3 were loaded as follows: 1, no lipid; 2, αGalCer; 3, PBS-31; 4, PBS-32; 5, no lipid; 6, iGB3; 7, PBS-40; 8, PBS-41; 9, PBS-35; 10, PBS-46; 11, PBS-58; 12, PBS-25 (positive control).

CCCCCCCCCCCCC/C=C/[C@@H](O)[C@H](CO[C@@H]1O[C@H](CO)[C@@H](O)[C@H](OS(=O)(=O)O)[C@H]1O)NC(=O)CCCCCCCCCCCCCCCCCCCCCCCCC [PBS-32, sulfoglucosylceramide]
DC phenotype (CD40, CD80, CD86, MHC class II expression) (splenic DCs; 1 μg intravenous, 24 hours): mature phenotype | adjuvant activity with purified protein antigen ([1]; in combination with ovalbumin): had adjuvant activity | H-2Kb/ova257-264 tetramer positive cells in the CD8+ T cell pool [1]: about 3% | IgG anti-ovalbumin response [1]: dramatically boosted | IFN-γ secretion (human NKT cell line): able to induce | IL-4 secretion (human NKT cell line): almost equivalent amounts | GM-CSF secretion (NKT cells): induced secretion | IFN-γ secretion (NKT cells): induced secretion | IL-4 secretion (NKT cells): induced secretion | IL-10 secretion (NKT cells): not IL-10 | presentation by DCs isolated from CD1-TD mice [2]: inefficient at presenting | presentation by splenocytes to DN32.D3 (IL-2 release) [2]: efficiently presented | relative potency in IL-2 production (DN32.D3 cells): consistently more potent than phytoceramide PBS-31 | requirement of processing by DCs for stimulation of NKT cells (DN32.D3 cells): does not require processing by DCs | IL-4 in serum (C57BI/6 mice): undetectable | timing of IFN-γ production (C57BI/6 mice): earlier IFN-γ production than α-GalCer | IFN-γ production in the serum (C57BI/6 mice; at 24 hours): 1500 pg/mL | IFN-γ production in the serum (C57BI/6 mice; eight hours post-injection): 600 pg/mL | tetramer staining intensity [3]: less intense than for CD1d-αGalCer tetramers but homogenous | anti-LCMV CD4+ T cell response (GP61, NP309) [4]: significant increase | anti-LCMV CD8+ T cell response (GP33, NP396, GP276) [4]: did equally well

CCCCCCCCCCCCC/C=C/[C@@H](O)[C@H](CO[C@H]1O[C@H](CO)[C@@H](O)[C@H](OS(=O)(=O)O)[C@H]1O)NC(=O)CCCCCCCCCCCCCCCCCCCCCCCCC [PBS-58]
loading of CD1d in the absence of saposin B (CD1d): marginally loaded in the absence of saposin B

CCCCCCCC/C=C\CCCCCCCCCCCCCC(=O)N[C@@H](CO[C@H]1O[C@H](CNC(C)=O)[C@H](O)[C@H](O)[C@H]1O)[C@H](O)[C@H](O)CCCCCCCCCCCCCC [PBS-57, reference compound]
H-2Kb/ova257-264 tetramer positive cells in the CD8+ T cell pool [1]: ~6% | IgG anti-ovalbumin response [1]: dramatically boosted

CCCCCCCCCCCCCCCCCCCCCCCCCC(=O)NC(COC1OC(CO)C(O)C(OS(=O)(=O)O)C1O)C(O)C(O)CCCCCCCCCCCCCC (stereo not drawn) [PBS-36]
loading of CD1d in the absence of saposin B (CD1d): loaded onto CD1d in the absence of saposin B

CCCCCCCCCCCCCCCCCCCCCCCCCC(=O)NC(COC1OC(CO)C(O)C(OS(=O)(=O)O)C1O)C(O)C(O)CCCCCCCCCCCCCC (stereo not drawn) [PBS-31]
DC maturation effect relative to the other lipids (splenic DCs; 1 μg intravenous, 24 hours): less pronounced effect | DC phenotype (CD40, CD80, CD86, MHC class II expression) (splenic DCs; 1 μg intravenous, 24 hours): mature phenotype | lesser potency on DC maturation at increased doses (splenic DCs; doses up to 50 μg per mouse, data not shown): could not be overcome | IFN-γ secretion (human NKT cell line): significantly less | IL-4 secretion (human NKT cell line): almost equivalent amounts | GM-CSF secretion (NKT cells): induced only GM-CSF | IFN-γ secretion (NKT cells): induced only GM-CSF | IL-4 secretion (NKT cells): induced only GM-CSF | IL-10 secretion (NKT cells): induced only GM-CSF | presentation by DCs isolated from CD1-TD mice [2]: inefficient at presenting | presentation by splenocytes to DN32.D3 (IL-2 release) [2]: efficiently presented | requirement of processing by DCs for stimulation of NKT cells (DN32.D3 cells): does not require processing by DCs

isoglobotrihexosylceramide [iGB3, reference compound]
IL-4 secretion (human NKT cell line): almost equivalent amounts

CCCCCCCCCCCCCC[C@@H](O)[C@@H](O)[C@H](CO[C@H]1O[C@H](CO)[C@H](O)[C@H](O)[C@H]1O)NC(=O)CCCCCCC [PBS-25]
loading of CD1d in the absence of saposin B (CD1d): marginally loaded in the absence of saposin B
